# Legend:
# [1] = target: T1, fMet-Leu-Phe receptor (Homo sapiens, UniProt P21462); assay: Antagonist activity at human recombinant FPR1 in expressed in HEK293 cells assessed as inhibition of FMLP-stimulated intracellular calcium mobilisation after 1 hr by FLIPR assay; format: functional, cell-based
# T1 sequence (P21462 whole entry): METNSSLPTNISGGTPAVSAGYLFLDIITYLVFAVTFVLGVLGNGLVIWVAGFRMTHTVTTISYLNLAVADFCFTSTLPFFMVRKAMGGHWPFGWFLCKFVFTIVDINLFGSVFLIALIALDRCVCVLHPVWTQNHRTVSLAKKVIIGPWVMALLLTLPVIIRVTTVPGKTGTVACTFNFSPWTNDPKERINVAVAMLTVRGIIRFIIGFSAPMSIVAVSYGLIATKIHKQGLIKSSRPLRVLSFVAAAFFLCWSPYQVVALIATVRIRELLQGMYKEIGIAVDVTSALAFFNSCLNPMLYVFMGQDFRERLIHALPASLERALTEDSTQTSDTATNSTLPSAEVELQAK
# [2] = test system: Liver; assay: Intrinsic clearance in rat liver microsomes assessed as media loss of parent compound per million cells
# [3] = Intrinsic clearance in Sprague-Dawley rat hepatocytes assessed per 10^6 cells measured after 90 mins
# [4] = Clearance in Sprague-Dawley rat at 2 mg/kg, iv; details: in vivo
# [5] = (§1) Fraction unbound in Sprague-Dawley rat plasma; format: ADME, cell-free; details: Sprague-Dawley
# [6] = Half life in Sprague-Dawley rat at 2 mg/kg, iv; details: in vivo
# [7] = Intrinsic clearance in human hepatocytes assessed per 10^6 cells measured after 90 mins
# [8] = Oral bioavailability in Sprague-Dawley rat at 2 mg/kg; format: ADME, organism-based; details: in vivo
# [9] = Ratio of drug level in blood to plasma in Sprague-Dawley rat; format: ADME
# [10] = Plasma clearance in bile duct cannulated Sprague-Dawley rat; format: ADME, organism-based
# [11] = […] pKa of the compound; format: physicochemical
# [12] = Thermodynamic solubility of compound by shake-flask technique; format: physicochemical; details: read-out: Therm_solubility
# [13] = (§2) Fraction unbound in human plasma; format: ADME, cell-free
# [14] = Volume of distribution at steady state in Sprague-Dawley rat at 2 mg/kg, iv; format: ADME, organism-based; set-up: dose 2 mg/kg, route intravenous; details: in vivo, read-out: Vdss
# [15] = Intrinsic clearance in human liver microsomes measured after 45 mins post NADPH addition
# [16] = test system: Plasma; assay: as §1; format: ADME, cell-free
# [17] = test system: Plasma; assay: as §2; format: ADME, cell-free
# [18] = target: T2, Solute carrier organic anion transporter family member 1B1 (Homo sapiens, UniProt Q9Y6L6); assay: Inhibition of OATP1B1 transporter
# T2 sequence (Q9Y6L6 whole entry): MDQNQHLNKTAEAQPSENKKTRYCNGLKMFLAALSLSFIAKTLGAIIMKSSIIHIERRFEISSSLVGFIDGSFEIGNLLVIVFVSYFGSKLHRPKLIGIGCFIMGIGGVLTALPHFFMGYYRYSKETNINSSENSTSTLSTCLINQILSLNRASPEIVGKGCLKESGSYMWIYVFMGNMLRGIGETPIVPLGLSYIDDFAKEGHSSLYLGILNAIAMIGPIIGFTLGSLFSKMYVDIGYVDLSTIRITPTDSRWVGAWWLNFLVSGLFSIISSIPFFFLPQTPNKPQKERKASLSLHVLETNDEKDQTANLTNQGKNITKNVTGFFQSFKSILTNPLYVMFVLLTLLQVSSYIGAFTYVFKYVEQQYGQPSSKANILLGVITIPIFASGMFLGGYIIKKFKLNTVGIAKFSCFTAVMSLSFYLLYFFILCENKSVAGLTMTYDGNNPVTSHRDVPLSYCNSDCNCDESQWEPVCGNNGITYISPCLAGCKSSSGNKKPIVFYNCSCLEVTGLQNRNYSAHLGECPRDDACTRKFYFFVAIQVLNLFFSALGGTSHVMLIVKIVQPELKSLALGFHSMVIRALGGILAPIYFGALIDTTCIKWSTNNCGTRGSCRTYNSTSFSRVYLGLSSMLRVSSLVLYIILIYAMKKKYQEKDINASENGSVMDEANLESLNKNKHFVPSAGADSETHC
# [19] = target: T3, fMet-Leu-Phe receptor (Homo sapiens) (UniProt P21462); assay: Antagonist activity at human recombinant FPR1 in expressed in HEK293 cells assessed as inhibition of FMLP-stimulated intracellular calcium mobilisation at 30 uM after 1 hr by FLIPR assay; format: functional, cell-based
# T3 sequence (whole entry): T1 sequence (P21462 whole entry)
# [20] = Distribution coefficient, log D of compound; format: physicochemical; details: octanol/water
# [21] = target: T4, Cytochrome P450 1A2 (Homo sapiens, UniProt P05177); assay: Inhibition of CYP1A2; format: ADME
# T4 sequence (P05177 whole entry): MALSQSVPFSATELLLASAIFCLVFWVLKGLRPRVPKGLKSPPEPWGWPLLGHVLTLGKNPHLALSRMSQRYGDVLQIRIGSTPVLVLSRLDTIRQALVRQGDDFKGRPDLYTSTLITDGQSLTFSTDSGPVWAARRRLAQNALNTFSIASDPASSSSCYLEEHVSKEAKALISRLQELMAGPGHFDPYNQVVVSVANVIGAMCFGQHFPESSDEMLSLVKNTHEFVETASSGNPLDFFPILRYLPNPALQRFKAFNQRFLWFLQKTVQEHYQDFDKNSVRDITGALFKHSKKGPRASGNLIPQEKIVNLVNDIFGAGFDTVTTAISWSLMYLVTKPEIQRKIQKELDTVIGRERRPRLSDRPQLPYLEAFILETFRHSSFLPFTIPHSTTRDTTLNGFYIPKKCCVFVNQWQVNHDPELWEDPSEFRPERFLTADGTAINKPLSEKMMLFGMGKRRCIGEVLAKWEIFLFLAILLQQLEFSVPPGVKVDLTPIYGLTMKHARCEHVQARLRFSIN
# [22] = target: Cytochrome P450 2C19 (Homo sapiens, UniProt P33261); assay: Inhibition of CYP2C19; format: ADME
# Sequence of Cytochrome P450 2C19 (P33261 whole entry): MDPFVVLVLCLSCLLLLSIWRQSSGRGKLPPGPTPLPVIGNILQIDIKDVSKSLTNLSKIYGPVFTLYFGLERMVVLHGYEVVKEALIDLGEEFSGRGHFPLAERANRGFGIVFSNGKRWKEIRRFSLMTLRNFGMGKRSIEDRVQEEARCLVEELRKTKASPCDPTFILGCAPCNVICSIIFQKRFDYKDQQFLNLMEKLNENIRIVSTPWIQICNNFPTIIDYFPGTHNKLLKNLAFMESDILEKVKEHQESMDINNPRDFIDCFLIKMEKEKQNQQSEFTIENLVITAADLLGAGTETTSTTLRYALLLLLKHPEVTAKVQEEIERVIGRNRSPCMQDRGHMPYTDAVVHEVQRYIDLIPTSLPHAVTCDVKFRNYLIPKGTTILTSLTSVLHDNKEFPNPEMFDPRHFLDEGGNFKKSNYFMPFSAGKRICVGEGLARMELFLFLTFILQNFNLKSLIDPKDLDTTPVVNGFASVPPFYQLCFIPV
# [23] = target: Cytochrome P450 3A4 (Homo sapiens, UniProt P08684); assay: Inhibition of CYP3A4; format: ADME
# Sequence of Cytochrome P450 3A4 (P08684 whole entry): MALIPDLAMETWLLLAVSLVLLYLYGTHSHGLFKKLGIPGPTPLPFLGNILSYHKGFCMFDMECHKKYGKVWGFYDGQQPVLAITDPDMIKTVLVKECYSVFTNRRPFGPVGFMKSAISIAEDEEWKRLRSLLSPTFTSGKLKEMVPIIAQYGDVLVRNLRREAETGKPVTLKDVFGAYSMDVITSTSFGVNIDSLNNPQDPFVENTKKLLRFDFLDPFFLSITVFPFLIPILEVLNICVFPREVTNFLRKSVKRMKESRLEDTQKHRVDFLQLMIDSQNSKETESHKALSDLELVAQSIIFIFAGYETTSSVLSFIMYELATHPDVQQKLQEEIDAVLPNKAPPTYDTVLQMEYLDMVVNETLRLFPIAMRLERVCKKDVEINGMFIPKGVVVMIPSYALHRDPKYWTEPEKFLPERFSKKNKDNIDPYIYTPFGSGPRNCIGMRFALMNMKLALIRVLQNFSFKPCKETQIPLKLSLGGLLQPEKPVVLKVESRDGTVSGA
# [24] = target: Cytochrome P450 2C9 (Homo sapiens, UniProt P11712); assay: Inhibition of CYP2C9; format: ADME
# Sequence of Cytochrome P450 2C9 (P11712 whole entry): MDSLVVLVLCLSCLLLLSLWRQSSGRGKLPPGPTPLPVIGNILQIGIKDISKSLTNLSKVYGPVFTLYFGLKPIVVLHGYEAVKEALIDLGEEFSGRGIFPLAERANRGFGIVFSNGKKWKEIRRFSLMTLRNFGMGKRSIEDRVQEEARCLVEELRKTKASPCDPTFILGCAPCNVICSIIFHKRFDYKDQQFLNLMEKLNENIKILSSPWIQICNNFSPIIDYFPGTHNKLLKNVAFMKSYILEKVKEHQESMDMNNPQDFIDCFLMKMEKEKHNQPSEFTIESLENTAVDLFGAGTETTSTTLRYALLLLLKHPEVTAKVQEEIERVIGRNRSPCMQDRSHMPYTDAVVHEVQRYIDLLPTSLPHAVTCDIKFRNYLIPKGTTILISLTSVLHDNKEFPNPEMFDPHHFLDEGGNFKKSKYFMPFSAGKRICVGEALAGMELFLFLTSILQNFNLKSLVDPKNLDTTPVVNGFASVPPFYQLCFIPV
# [25] = target: Cytochrome P450 2D6 (Homo sapiens, UniProt P10635); assay: Inhibition of CYP2D6; format: ADME
# Sequence of Cytochrome P450 2D6 (P10635 whole entry): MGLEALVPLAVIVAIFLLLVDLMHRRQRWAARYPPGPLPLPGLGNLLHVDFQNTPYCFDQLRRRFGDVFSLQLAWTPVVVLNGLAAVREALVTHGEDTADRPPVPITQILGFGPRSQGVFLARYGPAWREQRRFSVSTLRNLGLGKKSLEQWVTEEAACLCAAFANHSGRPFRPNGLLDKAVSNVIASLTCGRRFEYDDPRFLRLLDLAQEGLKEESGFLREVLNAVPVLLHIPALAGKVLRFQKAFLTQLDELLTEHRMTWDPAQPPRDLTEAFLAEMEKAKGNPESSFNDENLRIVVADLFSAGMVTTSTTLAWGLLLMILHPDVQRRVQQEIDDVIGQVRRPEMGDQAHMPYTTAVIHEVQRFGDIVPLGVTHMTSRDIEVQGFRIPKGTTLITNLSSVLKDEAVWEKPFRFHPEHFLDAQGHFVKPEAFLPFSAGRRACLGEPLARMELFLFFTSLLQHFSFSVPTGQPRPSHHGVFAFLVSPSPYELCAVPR
# [26] = Time dependent inhibition of CYP; format: ADME
# [27] = target: T1, fMet-Leu-Phe receptor; assay: Antagonist activity at FPR1 in human neutrophils assessed as AB/fMLF-stimulated upregulation of CD11b expression preincubated for 30 mins before AB/FMLF challenge measured after 50 mins using FITC staining by flow cytometry; format: functional; details: read-out: pA2 (converted)
# [28] = test system: THP-1; assay: Cytotoxicity against human THP1 cells; format: cell-based
compound,measurement,setting,value
Cc1ccc(S(=O)(=O)Nc2c(C(=O)N[C@@H](C)C(C)(C)C)c(C)nn2C(C)C)cc1,IC50,[1],1000 nM
same,CLH,[2],7.8 µL/min
same,hepatocyte CLint at […],[3],< 6 µL/min/1e6 cells
same,clearance,[4],4 mL/min/kg
same,fraction unbound,[5],0.04
Cc1nn(-c2ccc(F)cc2)c(NS(=O)(=O)c2ccc(C#N)cc2)c1C(=O)N[C@@H](C)C(C)(C)C,half-life,[6],36 min
same,hepatocyte CLint at […],[7],< 3 µL/min/1e6 cells
same,CLH,[2],33 µL/min
same,bioavailability,[8],5%
same,hepatocyte CLint at […],[3],< 4 µL/min/1e6 cells
same,blood plasma ratio,[9],0.7
same,clearance,[10],21 mL/min/kg
same,clearance,[4],42 mL/min/kg
same,fraction unbound,[5],0.043
same,pKa,[11],3
same,solubility thermodynamic,[12],> 2010 µM
same,fraction unbound,[13],0.08
same,Vd,[14],0.23 L/kg
same,microsomal CLint at 0.75 h,[15],5 µL/min/mg
Cc1ccc(S(=O)(=O)Nc2c(C(=O)N[C@@H](C)C(C)(C)C)c(C)nn2C2CCOC2)cc1 (some centres not stated),IC50,[1],1000 nM
COCCC(C)n1nc(C)c(C(=O)N[C@@H](C)C(C)(C)C)c1NS(=O)(=O)c1ccc(C)cc1 (some centres not stated),IC50,[1],316 nM
same,hepatocyte CLint at […],[3],10 µL/min/1e6 cells
Cc1ccc(S(=O)(=O)Nc2c(C(=O)N[C@@H](C)C(C)(C)C)c(C)nn2-c2ccccc2)cc1,half-life,[6],15 min
same,hepatocyte CLint at […],[7],7 µL/min/1e6 cells
same,CLH,[2],412 µL/min
same,bioavailability,[8],19%
same,blood plasma ratio,[9],0.7
same,clearance,[4],42 mL/min/kg
same,Fu,[16],1.1%
same,pKa,[11],3.9
same,solubility thermodynamic,[12],1030 µM
same,Fu,[17],4.2%
same,Vd,[14],0.45 L/kg
same,IC50,[18],7940 nM
same,microsomal CLint at 0.75 h,[15],40 µL/min/mg
Cc1ccc(S(=O)(=O)Nc2c(C(=O)N[C@@H](C)C(C)(C)C)c(C)nn2C(C)(C)C)cc1,IC50,[1],1580 nM
same,hepatocyte CLint at […],[3],53 µL/min/1e6 cells
CCC(CC)NC(=O)c1c(C)nn(C(C)C)c1NS(=O)(=O)c1ccc(C)cc1,IC50,[1],25100 nM
Cc1ccc(S(=O)(=O)Nc2c(C(=O)N[C@@H](C)C(C)(C)C)c(C)nn2C2CCOCC2)cc1,IC50,[1],316 nM
CCC(CC)n1nc(C)c(C(=O)N[C@@H](C)C(C)(C)C)c1NS(=O)(=O)c1ccc(C)cc1,IC50,[1],398 nM
Cc1ccc(S(=O)(=O)Nc2c(C(=O)N[C@@H](C)C(C)(C)C)c(C)nn2C2CCN(C)CC2)cc1,inhibition,[19],< 30%
Cc1ccc(S(=O)(=O)Nc2c(C(=O)N[C@@H](C)C(C)(C)C)c(C)nn2C2CCCC2)cc1,IC50,[1],79.4 nM
same,CLH,[2],12 µL/min
same,hepatocyte CLint at […],[3],8 µL/min/1e6 cells
Cc1ccc(S(=O)(=O)Nc2c(C(=O)N[C@@H](C)C(C)(C)C)c(C)nn2C2CCCCC2)cc1,IC50,[1],31.6 nM
same,CLH,[2],23 µL/min
same,hepatocyte CLint at […],[3],8 µL/min/1e6 cells
CO[C@H]1CC[C@H](n2nc(C)c(C(=O)N[C@@H](C)C(C)(C)C)c2NS(=O)(=O)c2ccc(C)cc2)CC1,inhibition,[19],< 30%
Cc1ccc(S(=O)(=O)Nc2c(C(=O)N[C@@H](C)C(C)(C)C)c(C)nn2C2CCN(CC(F)(F)F)CC2)cc1,IC50,[1],3160 nM
Cc1ccc(S(=O)(=O)Nc2c(C(=O)N[C@@H](C)C(C)(C)C)c(C)nn2C2CCS(=O)(=O)CC2)cc1,IC50,[1],10000 nM
Cc1nn(C2CCOCC2)c(NS(=O)(=O)c2ccc(C3CC3)cc2)c1C(=O)N[C@@H](C)C(C)(C)C,logD,[20],1.2
same,IC50,[21],> 10000 nM
same,IC50,[1],158 nM
same,IC50,[22],> 10000 nM
same,IC50,[23],> 10000 nM
same,IC50,[24],> 10000 nM
same,IC50,[25],> 10000 nM
same,pIC50,[26],< 5
same,bioavailability,[8],83%
same,fraction unbound,[5],0.111
same,solubility thermodynamic,[12],> 2800 µM
same,Kb,[27],794 nM
same,fraction unbound,[13],0.075
same,Vd,[14],0.5 L/kg
same,IC50,[28],> 50100 nM
Cc1ccc(S(=O)(=O)Nc2c(C(=O)N[C@@H](C)C(C)(C)C)c(C)nn2C2CCSCC2)cc1,IC50,[1],39.8 nM
COCC(C)n1nc(C)c(C(=O)N[C@@H](C)C(C)(C)C)c1NS(=O)(=O)c1ccc(C)cc1 (some centres not stated),IC50,[1],2510 nM
same,hepatocyte CLint at […],[3],< 3 µL/min/1e6 cells
Cc1ccc(S(=O)(=O)Nc2c(C(=O)N[C@@H](C)C(C)(C)C)c(C)nn2C2CCC2)cc1,IC50,[1],200 nM
same,hepatocyte CLint at […],[3],17 µL/min/1e6 cells
CO[C@H]1CC[C@@H](n2nc(C)c(C(=O)N[C@@H](C)C(C)(C)C)c2NS(=O)(=O)c2ccc(C)cc2)CC1,half-life,[6],168 min
same,logD,[20],1.3
same,IC50,[21],> 10000 nM
same,IC50,[1],3.98 nM
same,IC50,[22],> 10000 nM
same,hepatocyte CLint at […],[7],3.6 µL/min/1e6 cells
same,IC50,[23],> 10000 nM
same,IC50,[24],> 10000 nM
same,IC50,[25],> 10000 nM
same,pIC50,[26],< 5
same,bioavailability,[8],80%
same,hepatocyte CLint at […],[3],3 µL/min/1e6 cells
same,clearance,[4],5.5 mL/min/kg
same,fraction unbound,[5],0.1
same,Kb,[27],20 nM
same,fraction unbound,[13],0.073
same,Vd,[14],1.2 L/kg
same,IC50,[28],> 50100 nM
same,microsomal CLint at 0.75 h,[15],8 µL/min/mg
Cc1ccc(S(=O)(=O)Nc2c(C(=O)N[C@@H](C)C(C)(C)C)c(C)nn2CC(F)(F)F)cc1,IC50,[1],3160 nM
same,CLH,[2],18 µL/min
same,hepatocyte CLint at […],[3],74 µL/min/1e6 cells

# Reference: ChEMBL document CHEMBL1932964, “Lead optimisation of pyrazoles as novel FPR1 antagonists” (Bioorg Med Chem Lett, 2012)
